In US12049463B2, “Crystalline form of Tolebrutinib” (GENZYME CORPORATION, priority 2020, dated 2024):
Entries after “also recorded” stand apart in the source; their conditions may differ.

What was measured:
Type in all cases: physicochemical
[1] = Physical and chemical stability of Form CSI on storage (purity by UPLC, solid form by XRPD); settings: for Time for which crystalline state doesn't change (stable): open and sealed package
From the text: X-ray powder diffraction patterns in the present disclosure were acquired by a Bruker X-ray powder diffractometer. The parameters of the X-ray powder diffraction method of the present disclosure are as follows:
(§1) The related substance in the present disclosure was detected by UPLC and the parameters are shown below.
Said “open packaged” is putting the sample into a glass vial, covering the vial with aluminum foil, and punching 5-10 holes on the foil.
Said “sealed packaged” is putting the sample into a glass vial, capping the vial tightly, and sealing the vial in an aluminum foil bag.
A certain amount of Form CSI of the present disclosure and prior art amorphous were weighed and stored under 25° C./60% RH, 40° C./75% RH and 60° C./75% RH conditions, respectively. The purity and solid form were determined by UPLC and XRPD.

[2] = Stability at high temperature (80° C., purity by UPLC); settings: for Chemical stability in words / Final purity / Purity change: 2 days; for Final purity / Purity change: glass vial with cap; for Initial purity: before storage at 80° C.
Experimental: as §1
Approximately 10 mg of Form CSI of the present disclosure and prior art amorphous were stored at 80° C. for 2 days, and the initial and final purities were determined by UPLC, as shown in Table 11.

[3] = Hygroscopicity by dynamic vapor sorption (DVS); settings: for Weight gain at 80% RH: 25° C.; for Hygroscopicity class: weight gain at 80% RH, Chinese Pharmacopoeia definition
Experimental: Dynamic Vapor Sorption (DVS) was measured via an SMS (Surface Measurement Systems Ltd.) intrinsic DVS instrument. Typical Parameters for DVS test are as follows:
Gas and flow rate: nitrogen, 200 mL/min
RH range: 0% RH to 95% RH
Certain amounts of Form CSI of the present disclosure and prior art amorphous were sampled for hygroscopicity tests using dynamic vapor sorption (DVS) instrument. The weight change at each relative humidity is recorded during the cycle of 0% RH-95% RH-0% RH at 25° C., and the experimental results are listed in Table 12. The DVS plots of Form CSI and amorphous are as depicted in FIG. 8 and FIG. 9, respectively.
Description and definition of hygroscopicity (general notice 9103 drug hygroscopicity test guidelines in 2020 edition of Chinese Pharmacopoeia, experimental condition: 25±1° C., 80±2% RH): […]

[4] = XRPD before and after formulation process; settings: before and after the formulation process
Experimental: According to the formulation and process in Table 13 and Table 14, the drug products were prepared with an appropriate amount of Form CSI of the present disclosure. XRPD were tested before and after formulation.

[5] = 25° C./60% RH, open packaged, 6 months
[6] = 25° C./60% RH, sealed packaged, 6 months
[7] = 40° C./75% RH, open packaged, 6 months
[8] = 40° C./75% RH, sealed packaged, 6 months
[9] = 60° C./75% RH, open packaged, 1 month
[10] = 60° C./75% RH, sealed packaged, 1 month

With `C=CC(=O)N1CCC[C@@H](n2c(=O)n(-c3ccc(Oc4ccccc4)cc3)c3c(N)nccc32)C1` [Amorphous, (R)-1-(1-acryloylpiperidin-3-yl)-4-amino-3-(4-phenoxyphenyl)-1H-imidazo[4,5-c]pyridin-2(3H)-one] the “Impurity number exceed the qualificated threshold” value [1, 5] was 1, the Purity [1, 5] was 99.57% and the Purity change [1, 5] was −0.23%. The Solid form [1, 5] was “Amorphous”, the “Impurity number exceed the qualificated threshold” value [1, 6] was 1 and the Purity [1, 6] was 99.65%. For the same compound, the Purity change [1, 6] was −0.15%, the Solid form [1, 6] was “Amorphous” and the Purity decrease ([1]; 40° C./75% RH, open package, 6 months) was 3.46%. The “Impurity number exceed the qualificated threshold” value [1, 7] was 4, the Purity [1, 7] was 96.34% and the Purity change [1, 7] was −3.46%. The Solid form [1, 7] was “Amorphous”, the “Impurity number exceed the qualificated threshold” value ([1]; 40° C./75% RH, open packaged, 6 months, listed as prior art amorphous) was “four” and the “Impurity number exceed the qualificated threshold” value ([1]; 40° C./75% RH, open packaged, 6 months, listed as prior art solid) was “four”. For the same compound, the “Impurity number exceed the qualificated threshold” value [1, 8] was 2, the Purity [1, 8] was 99.18% and the Purity change [1, 8] was −0.62%. For the same compound, the Solid form [1, 8] was “Amorphous”, the Purity decrease ([1]; 60° C./75% RH, open package, 1 month) was “over 6.3%” and the “Impurity number exceed the qualificated threshold” value [1, 9] was 4. For the same compound, the Purity [1, 9] was 93.48%, the Purity change [1, 9] was −6.32% and the Solid form [1, 9] was “Amorphous”. The “Impurity number exceed the qualificated threshold” value ([1]; 60° C./75% RH, open packaged, 1 month, listed as prior art amorphous) was “four”, the “Impurity number exceed the qualificated threshold” value ([1]; 60° C./75% RH, open packaged, 1 month, listed as prior art solid) was “four” and the Purity decrease ([1]; 60° C./75% RH, sealed package, 1 month) was 2.76%. For the same compound, the “Impurity number exceed the qualificated threshold” value [1, 10] was 2, the Purity [1, 10] was 97.04% and the Purity change [1, 10] was −2.76%. The Solid form [1, 10] was “Amorphous”, the “Impurity number exceed the qualificated threshold” value ([1]; 60° C./75% RH, sealed packaged, 1 month, listed as prior art amorphous) was “two” and the “Impurity number exceed the qualificated threshold” value ([1]; 60° C./75% RH, sealed packaged, 1 month, listed as prior art solid) was “two”. For the same compound, the “Impurity number exceed the qualificated threshold” value ([1]; Initial (before storage)) was 1, the Purity ([1]; Initial (before storage)) was 99.80% and the “Chemical stability in words” value ([2]; 80° C.) was “significant degradation”. It also gave a Final purity ([2]; 80° C.) of 98.64%, a Purity change ([2]; 80° C.) of −1.16% and an Initial purity [2] of 99.80%. The “Weight gain at 80% RH” value ([3]; DVS, listed as Prior art solid) was 3.69%, the “Weight gain at 80% RH” value ([3]; DVS, listed as prior art solid) was 3.69% and the Hygroscopicity class ([3]; listed as prior art solid) was “hygroscopic”.

For `C=CC(=O)N1CCC[C@@H](n2c(=O)n(-c3ccc(Oc4ccccc4)cc3)c3c(N)nccc32)C1` [Form CSI, (R)-1-(1-acryloylpiperidin-3-yl)-4-amino-3-(4-phenoxyphenyl)-1H-imidazo[4,5-c]pyridin-2(3H)-one], the “Chemical purity during storage” value ([1]; 25° C./60% RH, 6 months) was “above 99.8%”, the “Time for which crystalline state doesn't change (stable)” value ([1]; 25° C./60% RH) was “at least 6 months” and the “Impurity number exceed the qualificated threshold” value [1, 5] was 0. The Purity [1, 5] was 99.81%, the Purity change [1, 5] was −0.05% and the Solid form [1, 5] was “Form CSI”. The “Impurity number exceed the qualificated threshold” value [1, 6] was 0, the Purity [1, 6] was 99.89% and the Purity change [1, 6] was 0.03%. The Solid form [1, 6] was “Form CSI”, the “Chemical purity during storing” value ([1]; 40° C./75% RH 6 months and 60° C./75% RH 1 month) was “above 99.8%” and the “Time for which crystalline state doesn't change (stable)” value ([1]; 40° C./75% RH) was “at least 6 months”. For the same compound, the “Impurity number exceed the qualificated threshold” value [1, 7] was 0, the Purity [1, 7] was 99.81% and the Purity change [1, 7] was −0.05%. For the same compound, the Solid form [1, 7] was “Form CSI”, the “Impurity number exceed the qualificated threshold” value [1, 8] was 0 and the Purity [1, 8] was 99.92%. For the same compound, the Purity change [1, 8] was 0.06%, the Solid form [1, 8] was “Form CSI” and the “Time for which crystalline state doesn't change” value ([1]; 60° C./75% RH, open or sealed package) was “at least 1 month”. The “Impurity number exceed the qualificated threshold” value [1, 9] was 0, the Purity [1, 9] was 99.86% and the Purity change [1, 9] was 0.00%. For the same compound, the Solid form [1, 9] was “Form CSI”, the “Impurity number exceed the qualificated threshold” value [1, 10] was 0 and the Purity [1, 10] was 99.85%. The Purity change [1, 10] was −0.01%, the Solid form [1, 10] was “Form CSI” and the “Impurity number exceed the qualificated threshold” value ([1]; Initial (before storage)) was 0. The Purity ([1]; Initial (before storage)) was 99.86%, the “Impurity content versus the qualificated threshold” value ([1]; throughout the stability investigation processes) was “does not exceed the qualificated threshold; also recorded: did not exceed the qualificated threshold” and the “Time for which chemical purity remains substantially unchanged” value ([2]; 80° C.) was “at least 2 days”. For the same compound, the “Chemical stability in words” value ([2]; 80° C.) was “basically remains unchanged”, the Final purity ([2]; 80° C.) was 99.95% and the Purity change ([2]; 80° C.) was 0.01%. For the same compound, the Initial purity [2] was 99.94%, the “Physical stability on formulation process (XRPD)” value [4] was “physically stable” and the “Weight gain of Form CSI relative to that of the prior art” value ([3]; DVS) was 1/7. For the same compound, the “Weight gain at 80% RH” value ([3]; DVS) was 0.53% and the Hygroscopicity class [3] was “slightly hygroscopic”.
